Source: patent US8818734B1, “Peptide ligands for sperm DNA fragmentation assay” (priority 2011, dated 2014)

Assays:
Format in all cases: cell-based
human spermatozoa [1] = assay: Induction of double-strand DNA damage with Bleomycin: DW1 staining of ethanol-fixed slides, SCDt, neutral comet assay; conditions: 2 and 4 mg/ml Bleomycin, 3 h, 37° C., p<0.05
Method: Five human sperm samples were washed in PBS (220 g, 10 min), diluted to a concentration of 10×10^6 spermatozoa/ml in PBS (Fischer Scientific International, Pittsburgh, Pa., USA) and divided into three aliquots of 200 μl each, allowing a control group to be compared with the treated cells. To induce double-strand DNA damage, spermatozoa were incubated with 2 and 4 mg/ml of Bleomycin (Sigma, St Louis, Mo., USA) for 3 h at 37° C.
(§1) Control, H2O2 (0.03% and 0.3%) and Bleomycin (2 and 4 mg/ml)-treated sperm samples were used for this purpose. Ten fields per sample were captured as described above in the Fluorescence microscopy evaluation and image capture section using a fixed exposure time. A total of 300 sperm cells per slide were analysed.
A Mann-Whitney U test was used to detect significant differences in the frequencies of SDF calculated by SCDt and neutral comet assay between the control and each one of the treatments, 2 mg/ml and 4 mg/ml of bleomycin.

human spermatozoa [2] = assay: Induction of single-strand DNA damage with H2O2: DW1 staining of ethanol-fixed slides, SCDt, alkaline comet assay; conditions: 0.03 and 0.3% H2O2, 30 min, p<0.05
Method: Five human sperm samples were washed in PBS (220 g, 10 min), diluted to a concentration of 10×10^6 spermatozoa/ml in PBS (Fischer Scientific International, Pittsburgh, Pa., USA) and divided into three aliquots of 200 μl each, allowing a control group to be compared with the treated cells. To induce single-strand DNA damage (Yamamoto, 1969), spermatozoa were incubated with 0.03 and 0.3% H2O2 (Sigma, St Louis, Mo., USA) for 30 min at room temperature.
as §1
One way-ANOVA and Dunnett's Test for multiple comparisons with a single control were used to detect significant differences in the frequencies of SDF calculated by SCDt and alkaline comet assay between the control and each one of the treatments, 0.03% and 0.3% H2O2.

spermatozoa = assay: Access of TAT-modified DW1 to the cell interior; conditions: DW1 modified to include TAT peptide YGRKKRRQRRRG
Source text: However, it is possible that different TAT configurations or the use of an alternative protein transduction domain might allow penetration into the cell interior. […] It is still possible that the peptide could be used to choose spermatozoa for fertilization using ICSI following removal of membranes using detergent. Previous studies have shown that sperm treated in this way remain fertilizations competent (Kasai et al., 1999). […] Electroporation is known not to inhibit sperm viability and ICSI procedures.

Q: With Bleomycin as the molecule, how does the “frequency of sperm cells with fragmented DNA by SCDt (SCDt-SDF) and neutral comet assay (dsSDF)” value (human spermatozoa [1]) read?
A: The value was “significantly increased”.

Q: Which “frequency of sperm cells with fragmented DNA by SCDt (SCDt-SDF) and alkaline comet assay (ssSDF)” value (human spermatozoa [2]) does the source give for OO [H2O2, Hydrogen Peroxide] here?
A: The value was “significant increase”.

Q: How did the “access to the cell interior” value (spermatozoa) turn out when “DW1 (SEQ ID NO:1) to include a TAT peptide: DW1 modified to include a TAT peptide (YGRKKRRQRRRG), a transduction sequence (GSRAHSSHLKSKKGQSTSRHKKYGRKKRRQRRRG; listed as Homo sapiens)” was run?
A: The value was “failed to improve access to the cell interior”.
